Measured values from PubChem BioAssay AID1963971 (Molecular Pharmacology Branch, DTP, NCI, 2024).

System: 953936-095-R-J2-PDC spheroids with HUVEC/MSC, viability
Assay: Anticancer human tumor 953936-095-R-J2-PDC patient-derived cervical squamous cell carcinoma cell line growth inhibition [PI3K]
Conditions: for IC50: curve of first compound; for viability, T/C: stronger effect = lower value
How it was run: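 High-throughput combination screen: PI3K inhibitors crossed with targeted small molecules on complex spheroids of tumor cells, HUVEC and MSCs at 37 degrees C, 5% CO2. Top concentration was at or near clinical Cmax (otherwise 10 microM), with half-log decrements.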

[1] = second compound 0.0316 µM, first compound 0.000316 µM
[2] = second compound 0.0316 µM, first compound 0.001 µM
[3] = second compound 0.0316 µM, first compound 0.00316 µM
[4] = second compound 0.0316 µM, first compound 0.01 µM
[5] = second compound 0.0316 µM, first compound 0.0316 µM
[6] = second compound 0.0316 µM, first compound 0.1 µM
[7] = second compound 0.1 µM, first compound 0.000316 µM
[8] = second compound 0.1 µM, first compound 0.001 µM
[9] = second compound 0.1 µM, first compound 0.00316 µM
[10] = second compound 0.1 µM, first compound 0.01 µM
[11] = second compound 0.1 µM, first compound 0.0316 µM
[12] = second compound 0.1 µM, first compound 0.1 µM
[13] = second compound 0.316 µM, first compound 0.000316 µM
[14] = second compound 0.316 µM, first compound 0.001 µM
[15] = second compound 0.316 µM, first compound 0.00316 µM
[16] = second compound 0.316 µM, first compound 0.01 µM
[17] = second compound 0.316 µM, first compound 0.0316 µM
[18] = second compound 0.316 µM, first compound 0.1 µM
[19] = second compound 1 µM, first compound 0.000316 µM
[20] = second compound 1 µM, first compound 0.001 µM
[21] = second compound 1 µM, first compound 0.00316 µM
[22] = second compound 1 µM, first compound 0.01 µM
[23] = second compound 1 µM, first compound 0.0316 µM
[24] = second compound 1 µM, first compound 0.1 µM
[25] = second compound 3.16 µM, first compound 0.000316 µM
[26] = second compound 3.16 µM, first compound 0.001 µM
[27] = second compound 3.16 µM, first compound 0.00316 µM
[28] = second compound 3.16 µM, first compound 0.01 µM
[29] = second compound 3.16 µM, first compound 0.0316 µM
[30] = second compound 3.16 µM, first compound 0.1 µM
[31] = second compound 10 µM, first compound 0.000316 µM
[32] = second compound 10 µM, first compound 0.001 µM
[33] = second compound 10 µM, first compound 0.00316 µM
[34] = second compound 10 µM, first compound 0.01 µM
[35] = second compound 10 µM, first compound 0.0316 µM
[36] = second compound 10 µM, first compound 0.1 µM
[37] = second compound 0.0316 µM, first compound 0.316 µM
[38] = second compound 0.0316 µM, first compound 1 µM
[39] = second compound 0.0316 µM, first compound 3.16 µM
[40] = second compound 0.0316 µM, first compound 10 µM
[41] = second compound 0.1 µM, first compound 0.316 µM
[42] = second compound 0.1 µM, first compound 1 µM
[43] = second compound 0.1 µM, first compound 3.16 µM
[44] = second compound 0.1 µM, first compound 10 µM
[45] = second compound 0.316 µM, first compound 0.316 µM
[46] = second compound 0.316 µM, first compound 1 µM
[47] = second compound 0.316 µM, first compound 3.16 µM
[48] = second compound 0.316 µM, first compound 10 µM
[49] = second compound 1 µM, first compound 0.316 µM
[50] = second compound 1 µM, first compound 1 µM
[51] = second compound 1 µM, first compound 3.16 µM
[52] = second compound 1 µM, first compound 10 µM
[53] = second compound 3.16 µM, first compound 0.316 µM
[54] = second compound 3.16 µM, first compound 1 µM
[55] = second compound 3.16 µM, first compound 3.16 µM
[56] = second compound 3.16 µM, first compound 10 µM
[57] = second compound 10 µM, first compound 0.316 µM
[58] = second compound 10 µM, first compound 1 µM
[59] = second compound 10 µM, first compound 3.16 µM
[60] = second compound 10 µM, first compound 10 µM
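Also: spheroids exposed to compounds for seven days before read-out.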

CC(=O)c1c(C)c2cnc(Nc3ccc(N4CCNCC4)cn3)nc2n(C2CCCC2)c1=O + CC(Nc1ncnc2nc[nH]c12)c1cc2cccc(Cl)c2c(=O)n1-c1ccccc1
IC50 (second compound 0.0316 µM): > 0.1 µM
IC50 (second compound 0.1 µM): > 0.1 µM
IC50 (second compound 0.316 µM): > 0.1 µM
IC50 (second compound 1 µM): > 0.1 µM
IC50 (second compound 3.16 µM): > 0.1 µM
IC50 (second compound 10 µM): > 0.1 µM
viability, T/C [1]: 91.6%
viability, T/C [2]: 99.4%
viability, T/C [3]: 105%
viability, T/C [4]: 93.9%
viability, T/C [5]: 113%
viability, T/C [6]: 99.4%
viability, T/C [7]: 93%
viability, T/C [8]: 96.4%
viability, T/C [9]: 105%
viability, T/C [10]: 88.2%
viability, T/C [11]: 99.8%
viability, T/C [12]: 92.1%
viability, T/C [13]: 97.8%
viability, T/C [14]: 92.8%
viability, T/C [15]: 90.7%
viability, T/C [16]: 86.5%
viability, T/C [17]: 103%
viability, T/C [18]: 83%
viability, T/C [19]: 107%
viability, T/C [20]: 98.4%
viability, T/C [21]: 85.6%
viability, T/C [22]: 94%
viability, T/C [23]: 81.5%
viability, T/C [24]: 80.2%
viability, T/C [25]: 81.4%
viability, T/C [26]: 74.4%
viability, T/C [27]: 78.2%
viability, T/C [28]: 83.5%
viability, T/C [29]: 74.8%
viability, T/C [30]: 70.7%
viability, T/C [31]: 59.9%
viability, T/C [32]: 68.6%
viability, T/C [33]: 55.5%
viability, T/C [34]: 69.7%
viability, T/C [35]: 65.1%
viability, T/C [36]: 51.3%

CC(C)n1nc(-c2ccc3oc(N)nc3c2)c2c(N)ncnc21 + CC(Nc1ncnc2nc[nH]c12)c1cc2cccc(Cl)c2c(=O)n1-c1ccccc1
IC50 (second compound 0.0316 µM): 0.0338 µM
IC50 (second compound 0.1 µM): 0.029 µM
IC50 (second compound 0.316 µM): 0.0193 µM
IC50 (second compound 1 µM): 0.0307 µM
IC50 (second compound 3.16 µM): 0.0218 µM
IC50 (second compound 10 µM): 0.0113 µM
viability, T/C [1]: 88.3%
viability, T/C [2]: 98.9%
viability, T/C [3]: 93.9%
viability, T/C [4]: 73.9%
viability, T/C [5]: 53.7%
viability, T/C [6]: 18.2%
viability, T/C [7]: 101%
viability, T/C [8]: 95%
viability, T/C [9]: 85.1%
viability, T/C [10]: 77.1%
viability, T/C [11]: 46.3%
viability, T/C [12]: 16.5%
viability, T/C [13]: 112%
viability, T/C [14]: 87.6%
viability, T/C [15]: 77.9%
viability, T/C [16]: 66.9%
viability, T/C [17]: 46.8%
viability, T/C [18]: 17.2%
viability, T/C [19]: 95.1%
viability, T/C [20]: 84.2%
viability, T/C [21]: 77.7%
viability, T/C [22]: 65%
viability, T/C [23]: 56%
viability, T/C [24]: 15.9%
viability, T/C [25]: 73.3%
viability, T/C [26]: 70.5%
viability, T/C [27]: 68.8%
viability, T/C [28]: 68.8%
viability, T/C [29]: 41.1%
viability, T/C [30]: 14.6%
viability, T/C [31]: 57.7%
viability, T/C [32]: 57.3%
viability, T/C [33]: 53.3%
viability, T/C [34]: 52.8%
viability, T/C [35]: 29.9%
viability, T/C [36]: 12.8%

CC1(C)CCC(CN2CCN(c3ccc(C(=O)NS(=O)(=O)c4ccc(NCC5CCOCC5)c([N+](=O)[O-])c4)c(Oc4cnc5[nH]ccc5c4)c3)CC2)=C(c2ccc(Cl)cc2)C1 + CC(Nc1ncnc2nc[nH]c12)c1cc2cccc(Cl)c2c(=O)n1-c1ccccc1
IC50 (second compound 0.0316 µM): 7.41 µM
IC50 (second compound 0.1 µM): 6.33 µM
IC50 (second compound 0.316 µM): 7.43 µM
IC50 (second compound 1 µM): 7.16 µM
IC50 (second compound 3.16 µM): 6.61 µM
IC50 (second compound 10 µM): 4.9 µM
viability, T/C [5]: 84.4%
viability, T/C [6]: 102%
viability, T/C [37]: 101%
viability, T/C [38]: 90.2%
viability, T/C [39]: 94.7%
viability, T/C [40]: 34.3%
viability, T/C [11]: 93.8%
viability, T/C [12]: 104%
viability, T/C [41]: 112%
viability, T/C [42]: 98%
viability, T/C [43]: 78.8%
viability, T/C [44]: 31%
viability, T/C [17]: 101%
viability, T/C [18]: 93.9%
viability, T/C [45]: 104%
viability, T/C [46]: 96.3%
viability, T/C [47]: 90.5%
viability, T/C [48]: 35.8%
viability, T/C [23]: 106%
viability, T/C [24]: 97.1%
viability, T/C [49]: 82.5%
viability, T/C [50]: 88.7%
viability, T/C [51]: 88.8%
viability, T/C [52]: 34.4%
viability, T/C [29]: 80.4%
viability, T/C [30]: 79.4%
viability, T/C [53]: 80.6%
viability, T/C [54]: 80.5%
viability, T/C [55]: 67.7%
viability, T/C [56]: 39.2%
viability, T/C [35]: 57.5%
viability, T/C [36]: 70.3%
viability, T/C [57]: 59.6%
viability, T/C [58]: 60.8%
viability, T/C [59]: 62%
viability, T/C [60]: 31.1%

CCCS(=O)(=O)Nc1ccc(F)c(C(=O)c2c[nH]c3ncc(-c4ccc(Cl)cc4)cc23)c1F + CC(Nc1ncnc2nc[nH]c12)c1cc2cccc(Cl)c2c(=O)n1-c1ccccc1
IC50 (second compound 0.0316 µM): 5.74 µM
IC50 (second compound 0.1 µM): 5.73 µM
IC50 (second compound 0.316 µM): 5.56 µM
IC50 (second compound 1 µM): 5.28 µM
IC50 (second compound 3.16 µM): 5.05 µM
IC50 (second compound 10 µM): 4.07 µM
viability, T/C [5]: 91.3%
viability, T/C [6]: 98.6%
viability, T/C [37]: 108%
viability, T/C [38]: 113%
viability, T/C [39]: 103%
viability, T/C [40]: 0.75%
viability, T/C [11]: 102%
viability, T/C [12]: 101%
viability, T/C [41]: 99.2%
viability, T/C [42]: 104%
viability, T/C [43]: 104%
viability, T/C [44]: 1.22%
viability, T/C [17]: 101%
viability, T/C [18]: 91.6%
viability, T/C [45]: 97%
viability, T/C [46]: 102%
viability, T/C [47]: 97.2%
viability, T/C [48]: 0.93%
viability, T/C [23]: 98.9%
viability, T/C [24]: 85.1%
viability, T/C [49]: 96.5%
viability, T/C [50]: 98.2%
viability, T/C [51]: 89.3%
viability, T/C [52]: 1.11%
viability, T/C [29]: 76.1%
viability, T/C [30]: 74.6%
viability, T/C [53]: 78%
viability, T/C [54]: 101%
viability, T/C [55]: 86.9%
viability, T/C [56]: 1.48%
viability, T/C [35]: 59.5%
viability, T/C [36]: 63.5%
viability, T/C [57]: 63%
viability, T/C [58]: 70.1%
viability, T/C [59]: 63.6%
viability, T/C [60]: 1.27%

C[C@@H](NC(=O)c1ncnc(N)c1Cl)c1ncc(C(=O)Nc2cc(C(F)(F)F)c(Cl)cn2)s1 + CC(Nc1ncnc2nc[nH]c12)c1cc2cccc(Cl)c2c(=O)n1-c1ccccc1
IC50 (second compound 0.0316 µM): > 10 µM
IC50 (second compound 0.1 µM): > 10 µM
IC50 (second compound 0.316 µM): > 10 µM
IC50 (second compound 1 µM): > 10 µM
IC50 (second compound 3.16 µM): > 10 µM
IC50 (second compound 10 µM): > 10 µM
viability, T/C [5]: 103%
viability, T/C [6]: 98.3%
viability, T/C [37]: 101%
viability, T/C [38]: 108%
viability, T/C [39]: 101%
viability, T/C [40]: 97.2%
viability, T/C [11]: 113%
viability, T/C [12]: 106%
viability, T/C [41]: 106%
viability, T/C [42]: 101%
viability, T/C [43]: 117%
viability, T/C [44]: 96.4%
viability, T/C [17]: 107%
viability, T/C [18]: 101%
viability, T/C [45]: 94.3%
viability, T/C [46]: 95.4%
viability, T/C [47]: 103%
viability, T/C [48]: 94.6%
viability, T/C [23]: 96.5%
viability, T/C [24]: 91.3%
viability, T/C [49]: 91.8%
viability, T/C [50]: 102%
viability, T/C [51]: 94.8%
viability, T/C [52]: 86.2%
viability, T/C [29]: 87.2%
viability, T/C [30]: 79.5%
viability, T/C [53]: 86.1%
viability, T/C [54]: 94%
viability, T/C [55]: 80.1%
viability, T/C [56]: 79.8%
viability, T/C [35]: 60.9%
viability, T/C [36]: 76.9%
viability, T/C [57]: 63.1%
viability, T/C [58]: 80.7%
viability, T/C [59]: 61.7%
viability, T/C [60]: 55.1%
